A short description of data set [1]: Pharmacokinetic analysis at week 2 and week 8 (Example 5). The format is in vivo, human.
A short description of data set [2]: Plasma PK parameters at Week 2 and Week 8, interim analysis (Example 4). In kind it is in vivo, human. Also on record: AUC: concentration or dose not given beside the values. Conditions: for Cmax / AUC: human. On the procedure:
Methods: HCV treatment-naïve or (peg)IFN±ribavirin treatment-experienced GT1/4-infected cirrhotic pts≧18 yrs with Child-Pugh (CP) score<7 (Class A) with evidence of portal hypertension or 7-9 (Class B) were enrolled. Pts received 12 wks of SMV (150 mg once daily [QD]), DCV (60 mg QD) and SOF (400 mg QD). Primary efficacy endpoint: sustained virologic response 12 wks after end of treatment (EOT, SVR12). Key secondary endpoints: SVR4, on-treatment failure, viral relapse, PK and safety.

The mark [3] stands for this setting: plasma, oral, Week 2, Child-Pugh A (n = 19).
Setting [4] is: plasma, oral, Week 2, Child-Pugh B (n = 9).
Where [5] appears, read: plasma, oral, Week 8, Child-Pugh A (n = 18).
Where [6] appears, read: plasma, oral, Week 8, Child-Pugh B (n = 9).
Setting [7] is: in vivo, Week 2, Child-Pugh A (n = 19), plasma.
[8] abbreviates: in vivo, Week 2, Child-Pugh B (n = 9), plasma.
The mark [9] stands for this setting: in vivo, Week 8, Child-Pugh A (n = 18), plasma.
Where [10] appears, read: in vivo, Week 8, Child-Pugh B (n = 9), plasma.

As for `C[C@@]1(F)[C@H](O)[C@@H](CO)O[C@H]1n1ccc(=O)[nH]c1=O` [GS-331007], the “mean exposure in Child-Pugh A and Child-Pugh B subjects” value in data set [1] (in vivo) is recorded as “similar”.

As for `COC(=O)N[C@H](C(=O)N1CCC[C@H]1c1nc(-c2ccc(-c3ccc(-c4c[nH]c([C@@H]5CCCN5C(=O)[C@@H](NC(=O)OC)C(C)C)n4)cc3)cc2)c[nH]1)C(C)C` [Daclatasvir, daclatasvir], the “mean exposure in Child-Pugh A and Child-Pugh B subjects” value in data set [1] (treatment with SMV+SOF+DCV) is “similar”. In addition, in data set [2] (CP A and CP B), the “Mean exposures within groups and at Wk2 vs Wk8” value is recorded as “similar”. Also, the “AUC, mean” value in data set [2] (Week 2, Child-Pugh A (n = 19), plasma) is 16022 ng·h/mL. Besides, the maximum concentration (Cmax) in data set [2] (setting [3]) was 1150 ng/mL; in data set [2] (setting [4]), 958 ng/mL; in data set [2] (setting [5]), 1070 ng/mL; in data set [2] (setting [6]) it was 854 ng/mL. Further, the AUC in data set [2] (setting [4]) is 14200 ng·h/mL; in data set [2] (setting [5]), 15600 ng·h/mL; in data set [2] (setting [6]), 13500 ng·h/mL.

On to `COc1ccc2c(O[C@@H]3C[C@H]4C(=O)N[C@]5(C(=O)NS(=O)(=O)C6CC6)C[C@H]5/C=C\CCCCN(C)C(=O)[C@@H]4C3)cc(-c3nc(C(C)C)cs3)nc2c1C` [Simeprevir, simeprevir], for which the “mean exposure, higher in Child-Pugh B subjects than in Child-Pugh A subjects” value in data set [1] (treatment with SMV+SOF+DCV) is 2.2 fold. In addition, in data set [2] (CP A and CP B), the “Mean exposures for both groups, Wk2 vs Wk8” value was “comparable”. In addition, in data set [2] (Wk2), the “Mean SMV exposure (AUC), higher in CP B vs CP A pts” value is on record as 1.3 fold. Besides, the “individual pt exposures in the CP B group” value in data set [2] (compared with CP A) was “within the range observed for CP A”. Also, the AUC in data set [2] (setting [3]) came to 114000 ng·h/mL; in data set [2] (setting [4]), 144000 ng·h/mL; in data set [2] (setting [5]), 98600 ng·h/mL; in data set [2] (setting [6]), 176000 ng·h/mL. For the same compound, the highest concentration (Cmax) was found to be 6980 ng/mL in data set [2] (setting [3]), 7950 ng/mL in data set [2] (setting [4]), 6030 ng/mL in data set [2] (setting [5]) and 8840 ng/mL in data set [2] (setting [6]).

In the case of `CC(C)OC(=O)[C@H](C)N[P@](=O)(OC[C@H]1O[C@@H](n2ccc(=O)[nH]c2=O)[C@](C)(F)[C@@H]1O)Oc1ccccc1` [Sofosbuvir, sofosbuvir], the “mean exposure, higher in Child-Pugh B subjects than in Child-Pugh A subjects” value in data set [1] (treatment with SMV+SOF+DCV) was determined as 1.4 fold. Moreover, the “Mean exposures within groups and at Wk2 vs Wk8” value in data set [2] (CP A and CP B) was “similar”. The area under the curve (AUC) is 2860 ng·h/mL in data set [2] (setting [7]), 3770 ng·h/mL in data set [2] (setting [8]), 2730 ng·h/mL in data set [2] (setting [9]) and 3770 ng·h/mL in data set [2] (setting [10]). Moreover, the highest concentration (Cmax) in data set [2] (setting [7]) was 1570 ng/mL; in data set [2] (setting [8]), 1740 ng/mL; in data set [2] (setting [9]), 1280 ng/mL; in data set [2] (setting [10]) it was 1420 ng/mL.

As usually defined, the Cmax is the highest concentration seen after dosing. Usually AUC stands for concentration integrated over time.

The record behind these values is patent publication US20160206645A1, “COMBINATION THERAPIES FOR TREATMENT OF HCV” (priority 2015, published 2016).
